{"source": "patent US5736394A", "about": "“Cellular uptake of modified peptides” (Boston Biomedical Research Institute, priority 1996, dated 1998)", "key": {"HL60 cells [1]": {"system": "HL60 cells", "test": "HL60 cell proliferation ([3H]TdR incorporation into DNA) after 18 h incubation, plus or minus irradiation", "format": "cell-based, human", "method": "A set of experiments were designed to assess the effects of Bz-peptides on ras-mediated signaling of cell proliferation, under conditions where incubations of cells, post peptide addition, were shorter (18 h) than that found optimal for their population doubling (~24 h). Experiments were intended to reveal early differences in the relative stability of the Bz-peptides, as judged by their effects on inhibition of cell proliferation, plus or minus irradiation.\nHL60 cells were exposed to Bz-ACVIM SEQ ID NO: 4 (FPTase-specific), Bz-ACVIL SEQ ID NO: 5 (GGPTase-I-specific), the benzophenone photophore (BBA), mevinolin (proliferation inhibition control), or the DMSO vehicle alone, plus or minus irradiation. After incubation for 18 h at 37° C., irradiated and non-irradiated cultures were assayed for [^3 H]TdR incorporation into DNA (a measure of proliferation)."}, "HL-60 cells": {"system": "HL-60 cells", "test": "Cellular uptake of [3H]Bz-peptides / [3H]BBA by HL60 cells (silicone oil centrifugation, cell pellets counted)", "method": "Initial experiments were designed to determine whether the Bz-modified peptide could cross cellular membranes. The methods employed for these studies are given briefly. First, 2×10^6 HL-60 cells/mL were incubated in serum free medium at 37° C. together with either [^3 H]-benzoylbenzoic acid ([^3 H]BBA) or the [^3 H]Bz-peptideover a 45 min time course. Aliquots (0.5 mL) of the cell suspension were removed at the times shown and separated from the aqueous medium by centrifugation through a silicone oil barrier. The cell pellets in the oil layer were counted.\nThe volume of an average HL60 cell can be estimated as 4.2×10^-6 μL. Thus, the pellet volume occupied by a […] suspension of 10^6 cells is […]."}, "HL60 cells [2]": {"system": "HL60 cells", "test": "Inhibition of HL60 cell proliferation ([3H]TdR incorporation at 24 h) after photolysis of intracellular Bz-peptide at 365 nm", "format": "cell-based, human", "conditions": "for cytostatic response / inhibition of DNA synthesis: irradiation immediately after plating, FIG. 2A", "source_text": "Experiments were designed to determine whether, after admission of the target-specific Bz-peptide molecules into proliferating cells, their photolysis in situ would induce a cytostatic response. Such a response would implicate the irreversible inhibition of ras-prenylating enzymes. […] It is important to note that, regardless of treatment, Trypan blue-assessed viability remained above 90% under the conditions employed for all experiments shown in FIG. 2A,B.\nTwo fundamental variations were performed. For FIG. 2A, cells were incubated in serum-free medium in the presence of a Bz-peptide, mevinolin, or, as control, with the DMSO delivery vehicle alone, for 15 min at room temp., after which fetal bovine serum was added to 10% (v/v) followed by plating in triplicate at 0.5 mL/well. These plates were immediately irradiated at 365 nm for 15 min to excite the intracellular Bz photophore, then placed in the incubator at 37° C. for 24 h. For FIG. 2B, the same procedure was followed except that, after serum replenishment and plating, cells were first incubated at 37° C. for 1 h, then removed from the incubator, irradiated for 15 min, and returned to incubation for 24 h. The 1 h incubation prior to irradiation was performed to assess, indirectly, the potential for intracellular destruction (or other means of depletion) of the Bz-peptides. At 24 h after serum replenishment, all cells were pulse-labeled with [^3 H]TdR to record the effect of intracellular Bz-peptide photolysis (as well as of mevinolin treatment, the effects of which have been well documented) on DNA synthesis and, thereby, on cell proliferation."}, "[3]": {"conditions": "10 μM, 1 h delay at 37° C. before photolysis, 24 h, FIG. 2B"}}, "note": "Where no end group is shown, it is not given here. The star is where a group is joined. Benzoyl(4-benzoyl) = O=C(c1ccccc1)c1ccc(C(=O)*)cc1", "data": [{"molecule": "O=C(O)c1ccc(C(=O)c2ccccc2)cc1", "note": "[BBA, 4-benzoylbenzoic acid]", "values": [{"measurement": "effect on the cell's capacity for proliferation", "setting": "HL60 cells [1]; whether cells were irradiated or not, 6th bar both panels", "value": "no effect"}]}, {"molecule": "APRTPGGRR", "values": [{"measurement": "intracellular accumulation", "setting": "HL-60 cells; 48 μM, HL60 cells, lowest trace in FIG. 1B", "value": "no evidence for intracellular accumulation"}]}, {"molecule": "Bz-ACVIL: Bz-derivatized pentapeptide ACVIL; GGPTase-I-specific photoaffinity inhibitor ({Benzoyl(4-benzoyl)}-ACVIL)", "values": [{"measurement": "influx and equilibration into cells", "setting": "HL-60 cells", "value": "behaved similarly"}, {"measurement": "inhibitory effect", "setting": "HL60 cells [2]; [3]", "value": "ineffective"}, {"measurement": "cytostatic response", "setting": "HL60 cells [2]; 10 μM, 24 h", "value": "did not do so"}, {"measurement": "loss of the inhibitory capacity manifest in FIG. 2A", "setting": "HL60 cells [2]; 100 μM, 1 h delay before photolysis, FIG. 2B relative to FIG. 2A", "value": "about 60%"}, {"measurement": "cytostatic response", "setting": "HL60 cells [2]; 100 μM, 24 h", "value": "clear cytostatic response"}]}, {"molecule": "Bz-ACVIM: Bz-derivatized pentapeptide; benzophenone moiety amide-coupled to the N-terminus of ACVIM; FPTase-specific photoaffinity inhibitor ({Benzoyl(4-benzoyl)}-ACVIM)", "values": [{"measurement": "influx and equilibration into cells", "setting": "HL-60 cells", "value": "extremely rapid"}, {"measurement": "time to reach maximum levels of influx and equilibration", "setting": "HL-60 cells", "value": "≤ 15", "unit": "min"}, {"measurement": "inhibitory effect", "setting": "HL60 cells [2]; [3]", "value": "much lower inhibitory effect"}, {"measurement": "inhibition of DNA synthesis", "setting": "HL60 cells [2]; 10 μM, 24 h", "value": "75-80%"}, {"measurement": "cytostatic effect", "setting": "HL60 cells [2]; 100 μM, 1 h delay at 37° C. before photolysis, 24 h, FIG. 2B", "value": "remained at least as powerful as in FIG. 2A"}, {"measurement": "inhibition of DNA synthesis", "setting": "HL60 cells [2]; 100 μM, 24 h", "value": "75-80%"}]}, {"molecule": "mevinolin [reference compound]", "values": [{"measurement": "relative extent of inhibition of cell proliferation", "setting": "HL60 cells [1]; whether or not cells were irradiated, 2nd bar both panels", "value": "~ 50%"}, {"measurement": "growth inhibition", "setting": "HL60 cells [2]; 10 μM, FIGS. 2A & 2B, whether irradiation was delayed for 1 h or not", "value": "apparent"}]}]}
